Experiment [1] has as its target T1, human sphingosine-1-phosphate receptor 1 (S1P1) (Homo sapiens, UniProt P21453). Nature of the experiment: β-Arrestin2 recruitment assay (PathHunter), S1P1 CHO-K1 cells. The following applies: for Emax: efficacy normalized to maximum efficacy of fingolimod, read-out: hS1P1 B-arrestin2 SPAN; for EC50: β-arrestin2 recruitment, read-out: hS1P1 B-arrestin2 pEC50 (converted). Type of experiment: cell-based. On the procedure:
Stable clonal Chinese hamster ovary K1 (CHO-K1) cells co-expressing EA-β-arrestin2 and the human sphingosine-1-phosphate receptor 1 (NM_001400, S1P1) with a C-terminal Prolink™ tag were purchased from DiscoverX corporation (Cat #: 93-0207C2).
Cell lines were cultured in AssayComplete™ Media 6 (DiscoverX Corporation, Cat #: 920018GF2) at 37° C. and 5% CO2 in a humidified CO2 and temperature-controlled incubator. To begin assay plating, cells were washed with Dulbecco's phosphate buffered saline (CellGro, Cat #: 21-031-CV) and lifted from the culturing flask by incubation (37° C., 5 min) with CellStripper (Cellgro, Cat #: 25-056-CI). […] Plated cells were incubated overnight at 37° C. and 5% CO2 in a humidified CO2 and temperature-controlled incubator.
Agonist-promoted β-arrestin2 recruitment to the sphingosine-1-phosphate 1 receptor was determined using the β-arrestin PathHunter® Detection kit (DiscoverX Corporation, Cat #: 93-0001). […] In cells that stably express these fusion proteins, stimulation with a cognate agonist results in the interaction of β-arrestin2 and the Prolink™-tagged GPCR. This allows the complementation of the two β-galactosidase fragments and results in the formation of a functional enzyme with β-galactosidase activity. […] Following a 60 minute incubation at 37° C. and 5% CO2 in a humidified CO2 and temperature-controlled incubator, the components of the β-arrestin PathHunter® Detection kit were added as per the manufacturer's instructions. After an hour incubation at room temperature, plates were analyzed by a BMG PheraStar microplate reader.
These values are normalized to fingolimod, a known agonist of the sphingosine-1-phosphate 1 receptor.
On the technique in general: Arrestin recruitment assays detect the binding of arrestin to an activated receptor.
Target sequence in this assay (P21453 whole entry): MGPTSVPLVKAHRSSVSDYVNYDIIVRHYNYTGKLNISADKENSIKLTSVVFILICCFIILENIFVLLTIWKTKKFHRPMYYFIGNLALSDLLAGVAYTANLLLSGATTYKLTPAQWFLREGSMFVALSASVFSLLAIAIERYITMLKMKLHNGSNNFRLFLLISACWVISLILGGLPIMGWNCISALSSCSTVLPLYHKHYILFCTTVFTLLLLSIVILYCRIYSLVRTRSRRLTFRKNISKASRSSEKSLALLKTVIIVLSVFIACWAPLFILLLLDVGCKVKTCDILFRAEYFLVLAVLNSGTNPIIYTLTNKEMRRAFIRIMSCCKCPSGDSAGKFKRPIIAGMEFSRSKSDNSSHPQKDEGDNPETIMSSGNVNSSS
Target sequence in this assay (P32121 whole entry partner): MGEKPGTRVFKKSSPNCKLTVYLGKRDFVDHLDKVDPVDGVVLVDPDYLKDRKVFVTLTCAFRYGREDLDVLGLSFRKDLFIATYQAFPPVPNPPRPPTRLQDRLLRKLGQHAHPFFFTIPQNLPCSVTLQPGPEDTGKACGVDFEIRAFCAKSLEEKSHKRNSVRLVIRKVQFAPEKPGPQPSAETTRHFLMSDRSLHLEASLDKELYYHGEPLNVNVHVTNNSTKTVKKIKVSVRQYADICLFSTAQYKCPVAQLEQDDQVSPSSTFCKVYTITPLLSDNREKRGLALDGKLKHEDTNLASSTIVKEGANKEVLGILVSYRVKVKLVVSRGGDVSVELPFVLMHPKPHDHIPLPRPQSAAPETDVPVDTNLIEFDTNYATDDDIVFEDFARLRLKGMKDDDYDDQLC

The target of experiment [2] is T1, human sphingosine-1-phosphate receptor 1 (S1P1). In words: Inhibition of cAMP production (HTRF cAMP HiRange), S1P1 CHO-K1 cells. Type of experiment: cell-based. Particulars: for Emax: CHO-K1, efficacy normalized to maximum efficacy of fingolimod, read-out: hS1P1 CAMP SPAN; for EC50: read-out: hS1P1 CAMP pEC50 (converted). The procedure, abridged:
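CHO-K1 cells co-expressing human S1P1 (C-terminal ProLink tag) and EA-β-arrestin2, plated overnight; after 30 min compound incubation at 37 °C, intracellular cAMP measured by HTRF TR-FRET following 1 h at room temperature. Values normalized to fingolimod.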
Target sequence in this assay (P21453 whole entry): as the sequence (P21453 whole entry) above

Where [3] appears, read: CHO-K1, β-arrestin2 recruitment.
Setting [4] is: inhibition of cAMP production, potency.
Where [5] appears, read: inhibition of cAMP production, S1P1.

`C=CCNc1ccc(-c2nc(-c3ccc4[nH]c(=O)oc4c3)no2)cc1C#N` [Compound 189, 2-(allylamino)-5-(3-(2-oxo-2,3-dihydro-benzo[d]oxazol-6-yl)-1,2,4-oxadiazol-5-yl)benzonitrile]: the Emax in experiment [1] (setting [3]) and in experiment [2] (inhibition of cAMP production) was more than 75% throughout. Besides, the EC50 is less than 10000 nM in experiment [1] (potency) and less than 316 nM in experiment [2] (setting [4]).

Regarding `Cc1ccccc1-c1noc(-c2ccc3c(c2)nnn3C2CCC2)n1` [Compound 306, 1-cyclobutyl-5-[3-(2-methylphenyl)-1,2,4-oxadiazol-5-yl]-1H-1,2,3-benzotriazole], the Emax in experiment [1] (setting [3]) is less than 75%; in experiment [2] (inhibition of cAMP production), more than 75%. In addition, the EC50 in experiment [1] (potency) was less than 10000 nM; in experiment [2] (setting [4]), less than 316 nM.

For the compound `CC1(C)Oc2ccc(-c3nc(-c4ccncc4)no3)cc2C1=O` [Compound 480, 2,2-dimethyl-5-[3-(pyridin-4-yl)-1,2,4-oxadiazol-5-yl]-2,3-dihydro-1-benzofuran-3-one], the Emax in experiment [1] (CHO-K1) was less than 75%; in experiment [2], more than 75%. Also, the EC50 in experiment [1] (S1P1) is more than 10000 nM; in experiment [2] (setting [5]), more than 316 nM.

As to `CC(C)n1nnc2cc(-c3ncc(-c4ccccc4Br)s3)ccc21` [Compound 220, 5-(2-bromophenyl)-2-(1-isopropylbenzo-triazol-5-yl)thiazole], the Emax in experiment [1] (setting [3]) and in experiment [2] (inhibition of cAMP production) was less than 75% throughout. For the same compound, the EC50 was more than 10000 nM in experiment [1] (potency) and more than 316 nM in experiment [2] (setting [4]).

Turning to `Oc1ccc(-c2noc(-c3ccc4c(c3)nnn4C3CCCC3)n2)cc1` [Compound 13, 4-[5-(1-cyclopentyl-1H-1,2,3-benzotriazol-5-yl)-1,2,4-oxadiazol-3-yl]phenol], the Emax in experiment [1] (setting [3]) and in experiment [2] (inhibition of cAMP production) was less than 75% each time. Further, the EC50 in experiment [1] (potency) is less than 10000 nM; in experiment [2] (setting [4]), less than 316 nM.

On to `CC1(C)Oc2ccc(-c3nc(-c4cccnc4)no3)cc2C1=O` [Compound 481, 2,2-dimethyl-5-[3-(pyridin-3-yl)-1,2,4-oxadiazol-5-yl]-2,3-dihydro-1-benzofuran-3-one], for which the Emax in experiment [1] (CHO-K1) is less than 75%; in experiment [2], more than 75%. Besides, the results for the EC50 in experiment [1] (S1P1) and in experiment [2] (setting [5]) were less than 10000 nM and more than 316 nM, respectively.

On to `COc1ccccc1-c1nnc(-c2ccc3c(c2)nnn3C(C)C)o1` [Compound 35, 5-[5-(2-methoxyphenyl)-1,3,4-oxadiazol-2-yl]-1-(propan-2-yl)-1H-1,2,3-benzotriazole], for which the Emax in experiment [1] (setting [3]) and in experiment [2] (inhibition of cAMP production) was more than 75% each time. Moreover, the EC50 was more than 10000 nM in experiment [1] (potency) and more than 316 nM in experiment [2] (setting [4]).

Regarding `CCC1(CC)CC(=O)c2cc(-c3nc(-c4ccncn4)no3)ccc2O1` [Compound 639, 2,2-diethyl-6-(3-(pyrimidin-4-yl)-1,2,4-oxadiazol-5-yl)chroman-4-one], the Emax in experiment [1] (CHO-K1) is more than 75%; in experiment [2], less than 75%. For the same compound, the values for the EC50 in experiment [1] (S1P1) and in experiment [2] (setting [5]) were more than 10000 nM and more than 316 nM, respectively.

Take `CCn1nnc2cc(-c3noc(-c4ccccc4Br)n3)ccc21` [Compound 2, 5-(2-bromophenyl)-3-(1-ethyl-1H-benzo[d][1,2,3]triazol-5-yl)-1,2,4-oxadiazole]: the EC50 in experiment [1] (potency) was less than 10000 nM.

Regarding `CCC1(CC)CC(=O)c2cc(-c3nc(-c4ccc(Cl)cc4)no3)ccc2O1` [Compound 68, 6-[3-(4-chlorophenyl)-1,2,4-oxadiazol-5-yl]-2,2-diethyl-chroman-4-one], the EC50 in experiment [2] (setting [4]) is more than 316 nM.

Regarding `Cc1ccccc1-c1noc(-c2ccc3c(c2)nnn3CC(F)F)n1` [Compound 182, 1-(2,2-difluoroethyl)-5-[3-(2-methylphenyl)-1,2,4-oxadiazol-5-yl]-1H-1,2,3-benzotriazole], in experiment [2] (setting [4]), the EC50 is less than 316 nM.

Consider `Cc1ccsc1-c1noc(-c2ccc3c(c2)nnn3CC(C)C)n1` [Compound 75, 1-(2-methylpropyl)-5-[3-(3-methylthiophen-2-yl)-1,2,4-oxadiazol-5-yl]-1H-1,2,3-benzotriazole], for which the EC50 in experiment [2] (setting [4]) is less than 316 nM.

As to `Cc1ccncc1-c1noc(-c2ccc3c(c2)nnn3C2CC2)n1` [Compound 94, 1-cyclopropyl-5-[3-(4-methylpyridin-3-yl)-1,2,4-oxadiazol-5-yl]-1H-1,2,3-benzotriazole], the EC50 in experiment [2] (setting [4]) is more than 316 nM.

Take `COc1ccccc1-c1coc(-c2ccc3c(c2)nnn3C(C)C)n1` [Compound 277, 5-[4-(2-methoxy-phenyl)-1,3-oxazol-2-yl]-1-(propan-2-yl)-1H-1,2,3-benzotriazole]: in experiment [2] (setting [4]), the EC50 was less than 316 nM.

On to `C=CCNc1ccc(-c2nc(-c3ccc4c(c3)nnn4C(C)C)no2)cc1C#N` [Compound 150, 2-(allylamino)-5-(3-(1-isopropyl-1H-benzo[d][1,2,3]triazol-5-yl)-1,2,4-oxadiazol-5-yl)benzonitrile], for which the EC50 in experiment [2] (setting [4]) is less than 316 nM.

As for `Cc1cccc(C)c1-c1noc(-c2ccc3c(c2)nnn3C(C)C)n1` [Compound 243, 3-(2,6-dimethyl-phenyl)-5-(1-isopropyl-1H-benzo[d][1,2,3]triazol-5-yl)-1,2,4-oxadiazole], in experiment [2] (setting [4]), the EC50 was more than 316 nM.

On to `Cc1ccsc1-c1noc(-c2ccc3c(c2)nnn3CC2CC2)n1` [Compound 239, 1-(cyclopropyl-methyl)-5-[3-(3-methylthiophen-2-yl)-1,2,4-oxadiazol-5-yl]-1H-1,2,3-benzotriazole], for which, in experiment [2] (setting [4]), the EC50 is more than 316 nM.

Turning to `CCC1(CC)CC(=O)c2cc(-c3nc(-c4ccc(S(N)(=O)=O)cc4)no3)ccc2O1` [Compound 106, 4-(5-(2,2-diethyl-4-oxochroman-6-yl)-1,2,4-oxadiazol-3-yl)benzenesulfonamide], the EC50 in experiment [2] (setting [4]) is less than 316 nM.

Consider `CCC1(CC)CC(=O)c2cc(-c3nc(-c4ccc(OC)nc4)no3)ccc2O1` [Compound 301, 2,2-diethyl-6-[3-(6-methoxy-3-pyridyl)-1,2,4-oxadiazol-5-yl]chroman-4-one], for which the EC50 in experiment [2] (setting [4]) is more than 316 nM.

With `CC(=O)Nc1ccc(-c2noc(-c3ccc(NC(C)C)c(C#N)c3)n2)cc1` [Compound 316, N-(4-(5-(3-cyano-4-(isopropylamino)phenyl)-1,2,4-oxadiazol-3-yl)phenyl)acetamide], in experiment [2] (setting [4]), the EC50 is less than 316 nM.

In the case of `COc1cccc2nc(-c3ccc4c(c3)nnn4C(C)C)oc12` [Compound 515, 2-(1-isopropyl-1H-benzo[d][1,2,3]triazol-5-yl)-7-methoxy-benzo[d]oxazole], the EC50 in experiment [2] (setting [5]) was less than 316 nM.

Turning to `CC(=O)Nc1ccccc1-c1coc(-c2ccc3c(c2)nnn3C(C)C)n1` [Compound 458, N-(2-{2-[1-(propan-2-yl)-1H-1,2,3-benzotriazol-5-yl]-1,3-oxazol-4-yl}phenyl)acetamide], the EC50 in experiment [2] (setting [5]) was more than 316 nM.

Take `COc1ccccc1-c1noc(-c2ccc3c(c2)nnn3C2CC2)n1` [Compound 173, 1-cyclopropyl-5-[3-(2-methoxyphenyl)-1,2,4-oxadiazol-5-yl]-1H-1,2,3-benzotriazole]: the EC50 in experiment [2] (setting [4]) is less than 316 nM.

In the case of `CC(C)n1nnc2cc(-c3noc(-c4ccccc4OC(F)(F)F)n3)ccc21` [Compound 240, 3-(1-isopropyl-1H-benzo[d][1,2,3]triazol-5-yl)-5-(2-(trifluoro-methoxy)phenyl)-1,2,4-oxadiazole], in experiment [2] (setting [4]), the EC50 was more than 316 nM.

On to `CC(C)n1nnc2cc(C(=O)Nc3noc4ccccc34)ccc21` [Compound 181, N-(benzo[d]isoxazol-3-yl)-1-isopropyl-1H-benzo[d][1,2,3]triazole-5-carboxamide], for which the EC50 in experiment [2] (setting [4]) is more than 316 nM.

`COc1cc(-c2noc(-c3ccc4c(c3)nnn4C3CCCC3)n2)ccn1` [Compound 281, 1-cyclopentyl-5-[3-(2-methoxypyridin-4-yl)-1,2,4-oxadiazol-5-yl]-1H-1,2,3-benzotriazole]: in experiment [2] (setting [4]), the EC50 is more than 316 nM.

For the compound `COc1ccccc1-c1nc(-c2ccc3c(c2)nnn3C(C)C)ns1` [Compound 138, 5-[5-(2-methoxyphenyl)-1,2,4-thiadiazol-3-yl]-1-(propan-2-yl)-1H-1,2,3-benzotriazole], the EC50 in experiment [2] (setting [4]) was less than 316 nM.

On to `Cc1ccccc1-c1c[nH]c(-c2ccc3c(c2)nnn3C(C)C)c1` [Compound 516, 5-[4-(2-methylphenyl)-1H-pyrrol-2-yl]-1-(propan-2-yl)-1H-1,2,3-benzotriazole], for which, in experiment [2] (setting [5]), the EC50 was more than 316 nM.

In the case of `CCC1(CC)CC(=O)c2cc(-c3nc(-c4ccc(C)cc4)no3)ccc2O1` [Compound 269, 2,2-diethyl-6-[3-(p-tolyl)-1,2,4-oxadiazol-5-yl]chroman-4-one], in experiment [2] (setting [4]), the EC50 was more than 316 nM.

(Values after US20230114241A1, “METHODS OF TREATING EPILEPSY USING THE SAME” (Trevena, Inc., priority 2019, published 2023).)
